Test results reported in US20070088031A1, “Novel chemical compounds” (priority 2003, published 2007).

Biological target: GSK-3β (Homo sapiens, UniProt P49841)
Experiment: GSK-3 kinase scintillation proximity assay (SPA) with biotinylated glycogen synthase peptide
Assay type: biochemical
Conditions: 20 nM kinase, 2.5 uM ATP, 40 minutes at room temperature; pIC50 = -log IC50 in Molar; read-out: GSK-3 inhibition
Source text: The phosphorylated biotinylated peptide is then captured onto streptavidin coated scintillation proximity assay (SPA) beads from Amersham Technology, where the signal from the ^33P is amplified via the scintillant contained in the beads.
GSK-3β, is commercially available or may be cloned and expressed in E coli using standard techniques to produce soluble, active protein. The production of active protein involves purification in two steps using Metal Chelate and Ion Exchange Chromatography. Protein eluting from Ion Exchange provides >90% pure product that may then be concentrated for use in high throughput screening.
The kinase was assayed at a concentration of 20 nM final in 100 mM HEPES, pH 7.2 containing 10 mM magnesium chloride, 0.1 mg/mL bovine serum albumin, 1 mM dithiothreitol, 0.3 mg/mL heparin, 2.8 uM peptide substrate, 2.5 uM ATP, and 0.2 uCi/well γ^33P]-ATP. After 40 minutes incubation at room temperature, the reaction was stopped by addition of 100 mM EDTA and […] in 100 mM HEPES, pH7.2 followed by an additional solution of diluted Streptavidin coated SPA beads in PBS, pH 7.2 to give a final concentration of 0.25 mg of beads per assay well in a 96-well microtiter plate.
10 mM stock solutions of the compounds of the invention in 100% DMSO are generated as a first step in the screening process. The second step involves the creation of dose response plates where these compounds are diluted 10-fold in 100% DMSO to 1 mM concentrations and subsequently serially diluted 3-fold in 100% DMSO across the plate by automated liquid handling such that the final top concentration of inhibitor is 0.033 mM in the 30 uL kinase assay. The third step involves the creation of the assay plates. This is achieved by transferring 1 uL of the compounds to assay plates by automated liquid handling. The fourth step is to perform the assay as described and count the resulting plates in the Packard TopCount NXT microplate scintillation and luminescence counter. The final step is data acquisition and analysis where IC50 values are generated for each compound by normalizing curve data to the equation 100*(U1−C2)/(C1−C2) (where U1 is the cpm value, C2 is the background, and C1 is the maximum number of counts), then fitting the normalized data to the equation y=Vmax*(1−(x/(K+x))). The IC50 values were converted to pIC50 values, i.e., -log IC50 in Molar concentration.

Sequence of GSK-3β (P49841 whole entry, species assumed): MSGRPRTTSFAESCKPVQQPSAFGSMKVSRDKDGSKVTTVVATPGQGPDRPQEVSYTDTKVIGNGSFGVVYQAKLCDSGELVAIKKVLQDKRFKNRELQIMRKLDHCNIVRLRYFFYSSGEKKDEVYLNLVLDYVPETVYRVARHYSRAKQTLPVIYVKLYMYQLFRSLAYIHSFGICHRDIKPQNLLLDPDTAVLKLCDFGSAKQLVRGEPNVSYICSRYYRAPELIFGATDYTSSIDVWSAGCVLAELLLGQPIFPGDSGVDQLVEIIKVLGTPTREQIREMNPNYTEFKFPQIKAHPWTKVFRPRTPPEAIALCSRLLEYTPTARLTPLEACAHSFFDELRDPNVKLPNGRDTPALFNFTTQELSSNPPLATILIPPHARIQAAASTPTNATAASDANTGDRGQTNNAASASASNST

Row | SMILES | IC50 [nM]
1 | COc1ccc(-c2cc3c(NC(=O)CCSC)ncnc3o2)cc1 [Example 4, N-[6-(4-Methoxy-phenyl)-furo[2,3-d]pyrimidin-4-yl]-3-methylsulfanyl-propionamide] | 100 to 1000
2 | COc1ccc(-c2cc3c(NC(=O)C4CCCCC4)ncnc3o2)cc1 [Example 6, Cyclohexanecarboxylic acid [6-(4-methoxy-phenyl)-furo[2,3-d]pyrimidin-4-yl]-amide] | > 1000
3 | O=C(Nc1ncnc2oc(-c3cccnc3)cc12)C1CCCC1 [Example 20, Cyclopentanecarboxylic acid (6-pyridin-3-yl-furo[2,3-d]pyrimidin-4-yl)-amide] | < 10
4 | COc1ccc(-c2cc3c(NC(=O)C4CCCC4)ncnc3o2)cc1 [Example 3, Cyclopentanecarboxylic acid [6-(4-methoxy-phenyl)-furo[2,3-d]pyrimidin-4-yl]-amide] | 10 to 100
